Tests used:
[1] = target: T1, KDR (baculovirus expressed human KDR kinase domain D807-V1356) (Homo sapiens, UniProt P35968); experiment: biochemical
T1 construct: human KDR kinase domain D807-V1356; host or cells: baculovirus expression system
Summary of the method: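 Luciferase-coupled chemiluminescence quantifies ATP left after a 4 h room-temperature reaction of KDR kinase domain (D807–V1356, baculovirus-expressed human). ATP set close to KM; inhibitors tested at 10 concentrations.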

Fyn = Fyn (Homo sapiens, UniProt P06241); experiment: Kinase assay, Fyn; type: biochemical
Chain of Fyn (P06241 whole entry, species assumed): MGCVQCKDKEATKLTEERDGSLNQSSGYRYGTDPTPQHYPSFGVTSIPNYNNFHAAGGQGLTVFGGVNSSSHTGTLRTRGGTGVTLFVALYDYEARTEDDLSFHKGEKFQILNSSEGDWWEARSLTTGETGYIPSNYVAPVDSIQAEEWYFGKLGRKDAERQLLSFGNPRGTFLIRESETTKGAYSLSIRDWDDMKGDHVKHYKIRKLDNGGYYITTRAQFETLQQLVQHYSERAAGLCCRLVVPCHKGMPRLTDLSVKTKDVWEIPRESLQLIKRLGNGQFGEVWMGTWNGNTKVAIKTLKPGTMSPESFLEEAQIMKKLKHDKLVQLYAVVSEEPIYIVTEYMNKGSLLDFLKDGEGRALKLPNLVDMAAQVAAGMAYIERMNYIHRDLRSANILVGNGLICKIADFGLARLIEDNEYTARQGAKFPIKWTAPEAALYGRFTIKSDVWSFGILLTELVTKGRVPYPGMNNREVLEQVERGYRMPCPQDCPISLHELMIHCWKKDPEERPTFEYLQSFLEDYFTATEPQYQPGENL
Protocol: (§1) Kinase activity and compound inhibition are investigated using one or more assay formats. The ATP concentrations for each assay are selected to be close to the Michaelis-Menten constant (KM) for each individual kinase. Dose-response experiments are performed at 10 different inhibitor concentrations in a 384-well plate format. […] Exemplary kinase assays are described below. KDR Assay

IRK = IRK (Homo sapiens, UniProt P06213); experiment: Kinase assay, IRK; type: biochemical
Chain of IRK (P06213 28-1382): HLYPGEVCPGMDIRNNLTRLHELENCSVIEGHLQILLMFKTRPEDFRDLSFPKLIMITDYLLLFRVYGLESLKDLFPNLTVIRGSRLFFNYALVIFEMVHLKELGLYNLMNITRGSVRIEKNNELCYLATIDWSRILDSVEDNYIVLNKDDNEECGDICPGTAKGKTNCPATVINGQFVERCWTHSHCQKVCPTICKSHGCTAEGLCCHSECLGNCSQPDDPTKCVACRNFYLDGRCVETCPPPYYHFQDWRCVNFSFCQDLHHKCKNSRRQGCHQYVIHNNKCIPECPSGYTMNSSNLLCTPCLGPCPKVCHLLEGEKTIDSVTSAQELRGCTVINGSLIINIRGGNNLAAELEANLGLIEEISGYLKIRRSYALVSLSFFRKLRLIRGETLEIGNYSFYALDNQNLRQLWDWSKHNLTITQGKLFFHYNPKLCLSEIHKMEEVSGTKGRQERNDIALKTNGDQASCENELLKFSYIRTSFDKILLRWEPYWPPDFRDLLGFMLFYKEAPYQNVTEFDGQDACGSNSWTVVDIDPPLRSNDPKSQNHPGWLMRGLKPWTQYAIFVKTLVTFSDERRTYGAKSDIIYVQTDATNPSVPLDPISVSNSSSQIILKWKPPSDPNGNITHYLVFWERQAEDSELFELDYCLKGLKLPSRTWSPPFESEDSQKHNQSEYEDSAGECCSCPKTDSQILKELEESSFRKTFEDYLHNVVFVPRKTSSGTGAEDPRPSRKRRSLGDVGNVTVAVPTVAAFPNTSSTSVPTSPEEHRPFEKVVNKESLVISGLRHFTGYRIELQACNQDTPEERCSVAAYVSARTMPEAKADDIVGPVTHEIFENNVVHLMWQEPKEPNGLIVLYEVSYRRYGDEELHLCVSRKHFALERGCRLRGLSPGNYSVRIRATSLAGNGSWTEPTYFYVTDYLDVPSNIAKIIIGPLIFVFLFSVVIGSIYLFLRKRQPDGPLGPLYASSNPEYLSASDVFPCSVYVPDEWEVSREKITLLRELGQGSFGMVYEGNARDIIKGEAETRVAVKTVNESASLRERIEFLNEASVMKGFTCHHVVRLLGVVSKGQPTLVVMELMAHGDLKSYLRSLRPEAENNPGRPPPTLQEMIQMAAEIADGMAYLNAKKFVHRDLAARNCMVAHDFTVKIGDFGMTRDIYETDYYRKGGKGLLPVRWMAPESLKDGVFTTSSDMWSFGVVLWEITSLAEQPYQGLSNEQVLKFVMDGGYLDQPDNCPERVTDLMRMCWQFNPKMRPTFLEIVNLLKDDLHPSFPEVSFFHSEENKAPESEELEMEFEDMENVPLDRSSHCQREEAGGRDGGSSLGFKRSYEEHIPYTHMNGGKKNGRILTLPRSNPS
Protocol: as §1

ALK = ALK (Homo sapiens, UniProt Q9UM73); experiment: Kinase assay, ALK (33P-ATP incorporation or luciferase-coupled ATP consumption); type: biochemical
Chain of ALK (Q9UM73 19-1620, species assumed): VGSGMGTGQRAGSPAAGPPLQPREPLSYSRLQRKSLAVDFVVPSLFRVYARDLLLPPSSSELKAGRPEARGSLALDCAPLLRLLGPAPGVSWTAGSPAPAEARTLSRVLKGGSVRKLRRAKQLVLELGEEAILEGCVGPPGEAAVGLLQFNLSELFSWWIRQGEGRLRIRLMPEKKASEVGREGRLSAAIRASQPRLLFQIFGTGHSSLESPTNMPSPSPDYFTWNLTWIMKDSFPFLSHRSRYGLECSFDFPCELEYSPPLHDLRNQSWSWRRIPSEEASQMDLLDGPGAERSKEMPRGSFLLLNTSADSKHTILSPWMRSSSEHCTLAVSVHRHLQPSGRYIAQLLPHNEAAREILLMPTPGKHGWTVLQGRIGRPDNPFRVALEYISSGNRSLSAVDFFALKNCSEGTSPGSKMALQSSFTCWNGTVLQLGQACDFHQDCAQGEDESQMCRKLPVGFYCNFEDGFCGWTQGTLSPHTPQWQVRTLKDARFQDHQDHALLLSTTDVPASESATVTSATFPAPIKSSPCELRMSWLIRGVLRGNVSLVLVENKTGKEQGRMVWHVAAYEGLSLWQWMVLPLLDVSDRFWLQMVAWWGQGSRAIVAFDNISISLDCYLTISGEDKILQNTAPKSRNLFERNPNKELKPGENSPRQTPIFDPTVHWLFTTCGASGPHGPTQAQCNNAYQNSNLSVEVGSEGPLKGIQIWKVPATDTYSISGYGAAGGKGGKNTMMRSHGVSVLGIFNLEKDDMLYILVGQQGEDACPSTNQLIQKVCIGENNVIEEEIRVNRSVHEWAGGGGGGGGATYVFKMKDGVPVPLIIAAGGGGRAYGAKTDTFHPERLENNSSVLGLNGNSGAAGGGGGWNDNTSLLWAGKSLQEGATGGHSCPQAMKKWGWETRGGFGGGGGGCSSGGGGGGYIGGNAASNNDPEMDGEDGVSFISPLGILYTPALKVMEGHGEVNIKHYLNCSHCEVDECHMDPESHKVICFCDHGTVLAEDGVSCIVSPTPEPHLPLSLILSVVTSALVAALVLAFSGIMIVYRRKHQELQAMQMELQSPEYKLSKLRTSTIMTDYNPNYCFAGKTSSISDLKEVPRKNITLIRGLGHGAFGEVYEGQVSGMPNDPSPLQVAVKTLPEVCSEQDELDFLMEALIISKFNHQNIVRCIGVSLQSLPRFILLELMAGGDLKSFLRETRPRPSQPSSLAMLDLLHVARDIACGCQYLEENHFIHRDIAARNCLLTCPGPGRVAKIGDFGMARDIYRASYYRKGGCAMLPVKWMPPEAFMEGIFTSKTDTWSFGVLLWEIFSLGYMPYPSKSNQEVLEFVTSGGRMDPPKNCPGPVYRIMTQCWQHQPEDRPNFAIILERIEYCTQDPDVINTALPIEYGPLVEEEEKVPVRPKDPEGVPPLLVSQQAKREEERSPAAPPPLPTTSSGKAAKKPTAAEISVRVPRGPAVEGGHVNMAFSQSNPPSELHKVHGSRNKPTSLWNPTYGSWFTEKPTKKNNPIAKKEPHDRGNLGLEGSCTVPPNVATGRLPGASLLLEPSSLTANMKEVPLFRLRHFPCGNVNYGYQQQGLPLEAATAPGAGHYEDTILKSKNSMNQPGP
Protocol: Kinase assays were performed by measurement of incorporation of γ-^33P ATP into immobilized myelin basic protein (MBP). […] Plates were washed 3× with 100 μl TBS. […] Compound dilutions were performed in DMSO and added to assay wells to a final DMSO concentration of 1%. Each data point was measured in duplicate, and at least two duplicate assays were performed for each individual compound determination. Enzyme was added to final concentrations of 10 nM or 20 nM, for example. A mixture of unlabeled ATP and γ-^33P ATP was added to start the reaction (2×10^6 cpm of γ-^33P ATP per well (3000 Ci/mmole) and either 10 μM or 30 μM unlabeled ATP, typically. The reactions were carried out for 1 hour at room temperature with shaking. Plates were washed 7× with TBS, followed by the addition of 50 μl/well scintillation fluid (Wallac). Plates were read using a Wallac Trilux counter. This is only one format of such assays, various other formats are possible, as known to one of ordinary skill in the art.
Tyrosine kinase activity is determined by 1) measurement of kinase-dependent ATP consumption by in the presence of a generic substrate such as, polyglutamic acid, tyrosine, 4:1 (pEY), by luciferase/luciferin-mediated chemiluminescence or; 2) incorporation of radioactive phosphate derived from ^33P-ATP into a generic substrate which has been adsorbed onto the well surface of polystyrene microtiter plates. Phosphorylated substrate products are quantified by scintillation spectrometry.
as §1

EphA2 = EphA2 (Homo sapiens, UniProt P29317); experiment: Kinase assay, EphA2 (33P-ATP incorporation or luciferase-coupled ATP consumption); type: biochemical
Summary of the method: (§2)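 Two formats used: luciferase/luciferin chemiluminescence of ATP consumed with pEY, or radiometric 33P transfer to plate-bound MBP or pEY read by scintillation.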

EGFR = EGFR (Homo sapiens, UniProt P00533); experiment: Kinase assay, EGFR (33P-ATP incorporation or luciferase-coupled ATP consumption); type: biochemical
Summary of the method: as §2

PDGFR alpha = PDGFR alpha (Homo sapiens, UniProt P16234); experiment: Kinase assay, PDGFR alpha (33P-ATP incorporation or luciferase-coupled ATP consumption); type: biochemical; conditions: read-out: PDGF-R-A IC50
Summary of the method: as §2

FGFR1 = FGFR1 (Homo sapiens, UniProt P11362); experiment: Kinase assay, FGFR1 (33P-ATP incorporation or luciferase-coupled ATP consumption); type: biochemical
Summary of the method: as §2

c-Kit kinase = c-Kit kinase (Homo sapiens, UniProt P10721); experiment: c-Kit AlphaScreen kinase assay; type: biochemical
Chain of c-Kit kinase (P10721 26-976): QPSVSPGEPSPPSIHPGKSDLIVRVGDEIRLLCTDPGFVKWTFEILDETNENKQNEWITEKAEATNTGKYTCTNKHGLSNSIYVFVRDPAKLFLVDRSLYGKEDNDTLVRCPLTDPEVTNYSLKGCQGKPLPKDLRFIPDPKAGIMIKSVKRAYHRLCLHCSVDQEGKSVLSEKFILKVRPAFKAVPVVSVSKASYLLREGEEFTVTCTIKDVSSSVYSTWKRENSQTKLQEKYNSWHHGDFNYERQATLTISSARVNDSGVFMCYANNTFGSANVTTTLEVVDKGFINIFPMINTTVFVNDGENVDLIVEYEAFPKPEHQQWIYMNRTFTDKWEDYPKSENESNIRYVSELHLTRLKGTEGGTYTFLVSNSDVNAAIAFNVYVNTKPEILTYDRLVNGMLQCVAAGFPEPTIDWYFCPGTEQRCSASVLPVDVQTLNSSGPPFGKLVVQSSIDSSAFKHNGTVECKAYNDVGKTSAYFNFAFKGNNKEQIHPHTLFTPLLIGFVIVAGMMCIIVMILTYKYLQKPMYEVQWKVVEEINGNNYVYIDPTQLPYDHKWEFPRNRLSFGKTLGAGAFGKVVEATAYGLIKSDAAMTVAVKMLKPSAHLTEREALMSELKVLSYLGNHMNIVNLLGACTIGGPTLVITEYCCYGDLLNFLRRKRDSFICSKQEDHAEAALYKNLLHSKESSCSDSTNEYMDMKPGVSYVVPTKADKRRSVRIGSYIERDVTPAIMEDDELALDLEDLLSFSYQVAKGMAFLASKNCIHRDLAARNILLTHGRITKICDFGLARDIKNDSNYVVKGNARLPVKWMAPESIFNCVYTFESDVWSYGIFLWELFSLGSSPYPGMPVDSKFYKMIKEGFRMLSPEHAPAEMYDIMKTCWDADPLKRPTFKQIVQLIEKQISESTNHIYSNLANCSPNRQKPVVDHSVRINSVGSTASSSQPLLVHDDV
Protocol: as §1
c-Kit biochemical activity was assessed using AlphaScreen™ (Perkin Elmer) technology, described above. Test compounds, ATP, biotinylated poly(Glu, Tyr) and c-Kit kinase were combined in a volume of 20 μL in a 384-well white, medium binding microtiter plate (Greiner). Reaction mixtures were incubated for 1 hr at ambient temperature. Reactions were quenched by addition of 10 uL of […] AlphaScreen bead suspension containing 75 mM Hepes, pH 7.4, 300 mM NaCl, 120 mM EDTA, 0.3% BSA and 0.03% Tween-20. After 16 hr incubation at ambient temperature plates were read using an AlphaQuest reader (Perkin Elmer).

T1 sequence (P35968 807-1356): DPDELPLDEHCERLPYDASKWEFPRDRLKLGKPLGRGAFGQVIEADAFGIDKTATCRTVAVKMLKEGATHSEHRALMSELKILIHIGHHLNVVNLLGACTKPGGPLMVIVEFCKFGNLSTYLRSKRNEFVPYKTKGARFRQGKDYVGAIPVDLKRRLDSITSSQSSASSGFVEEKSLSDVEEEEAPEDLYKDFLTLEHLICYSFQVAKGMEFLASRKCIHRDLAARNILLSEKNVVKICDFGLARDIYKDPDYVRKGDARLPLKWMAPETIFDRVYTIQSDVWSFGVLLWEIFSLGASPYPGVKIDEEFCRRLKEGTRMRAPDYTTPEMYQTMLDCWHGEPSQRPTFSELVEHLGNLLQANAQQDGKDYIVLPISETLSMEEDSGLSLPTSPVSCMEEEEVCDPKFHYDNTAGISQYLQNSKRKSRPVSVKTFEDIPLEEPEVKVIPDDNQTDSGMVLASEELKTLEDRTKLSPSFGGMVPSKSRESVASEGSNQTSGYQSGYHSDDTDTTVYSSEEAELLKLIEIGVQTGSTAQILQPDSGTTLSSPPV

Row | SMILES | IC50 [1] | IC50 (Fyn) | IC50 (IRK) | IC50 (ALK) | IC50 (EphA2) | IC50 (EGFR) | IC50 (PDGFR alpha) | IC50 (FGFR1) | IC50 (c-Kit kinase)
1 | CCN1CCC(Nc2ccc3c(c2)/C(=C(\c2ccc(C)cc2)c2nc(C)c[nH]2)C(=O)N3)CC1 [Entry 64, (3Z)-5-[(1-ethylpiperidin-4-yl)amino]-3-[(4-methyl-1H-imidazol-2-yl)(4-methylphenyl)methylidene] 1,3-dihydro-2H-indol-2-one] | < 50 nM | < 50 nM | 500 to 5000 nM | < 50 nM | 50 to 500 nM | 50 to 500 nM | < 50 nM | < 50 nM | –
2 | CCN1CCC(Nc2ccc3c(c2)/C(=C(\c2ccc(F)cc2)c2ncc[nH]2)C(=O)N3)CC1 [Entry 58, (3Z)-5-[(1-ethylpiperidin-4-yl)amino]-3-[(4-fluorophenyl)(1H-imidazol-2-yl)methylidene]-1,3-dihydro-2H-indol-2-one] | < 50 nM | < 50 nM | > 5000 nM | 50 to 500 nM | 500 to 5000 nM | 500 to 5000 nM | < 50 nM | < 50 nM | < 50 nM
3 | CCN1CCC(Nc2ccc3c(c2)/C(=C(\c2ccc(C)c(F)c2)c2ncc[nH]2)C(=O)N3)CC1 [Entry 57, (3Z)-5-[(1-ethylpiperidin-4-yl)amino]-3-[(3-fluoro-4-methylphenyl)(1H-imidazol-2-yl)methylidene]-1,3-dihydro-2H-indol-2-one] | < 50 nM | < 50 nM | 500 to 5000 nM | 50 to 500 nM | 50 to 500 nM | – | < 50 nM | < 50 nM | –
4 | CCN1CCC(Nc2ccc3c(c2)/C(=C(\c2ccc(C)c(F)c2)c2nc(C)c[nH]2)C(=O)N3)CC1 [Entry 67, (3Z)-5-[(1-ethylpiperidin-4-yl)amino]-3-[(3-fluoro-4-methylphenyl) (4-methyl-1H-imidazol-2-yl)methylidene]-1,3-dihydro-2H-indol-2-one] | < 50 nM | < 50 nM | 500 to 5000 nM | < 50 nM | 50 to 500 nM | < 50 nM | < 50 nM | < 50 nM | –
5 | COCCN1CCC(Nc2ccc3c(c2)/C(=C(\c2ccc(C)c(F)c2)c2nc(C)c[nH]2)C(=O)N3)CC1 [Entry 97] | < 50 nM | < 50 nM | 500 to 5000 nM | < 50 nM | 500 to 5000 nM | < 50 nM | – | < 50 nM | –

Next, values leading:

Row | IC50 [1] | IC50 (Fyn) | IC50 (IRK) | IC50 (ALK) | IC50 (EphA2) | IC50 (EGFR) | IC50 (PDGFR alpha) | IC50 (FGFR1) | IC50 (c-Kit kinase) | SMILES
6 | < 50 nM | < 50 nM | 500 to 5000 nM | < 50 nM | 500 to 5000 nM | 50 to 500 nM | < 50 nM | < 50 nM | < 50 nM | CCN1CCC(Nc2ccc3c(c2)/C(=C(/c2nc(C)c[nH]2)c2cccc(F)c2F)C(=O)N3)CC1 [Entry 110, (3Z)-3-[(2,3-difluorophenyl)(4-methyl-1H-imidazol-2-yl)methylidene]-5-[(1-ethylpiperidin-4-yl)amino]-1,3-dihydro-2H-indol-2-one]
7 | < 50 nM | < 50 nM | 50 to 500 nM | < 50 nM | 500 to 5000 nM | < 50 nM | – | < 50 nM | < 50 nM | CCN1CCC(Nc2ccc3c(c2)/C(=C(/c2nc(C)c[nH]2)c2ccc(Cl)cc2F)C(=O)N3)CC1 [Entry 118, (3Z)-3-[(4-chloro-2-fluorophenyl)(4-methyl-1H-imidazol-2-yl)methylidene]-5-[(1-ethylpiperidin-4-yl)amino]-1,3-dihydro-2H-indol-2-one]
8 | < 50 nM | < 50 nM | 500 to 5000 nM | < 50 nM | 500 to 5000 nM | 50 to 500 nM | < 50 nM | < 50 nM | < 50 nM | CCN1CCC(Nc2ccc3c(c2)/C(=C(\c2ccc(Cl)cc2)c2nc(C)c[nH]2)C(=O)N3)CC1 [Entry 102]

Reference: US7626031B2, “Substituted 3-(diarylmethylene)indolin-2-ones and methods of their use” (Symphony Evolution, Inc., priority 2002, dated 2009)
